According to patent US12234257B2, “Triterpene saponin derivative and use thereof” (KOREA INSTITUTE OF SCIENCE AND TECHNOLOGY, priority 2020, dated 2025):
Entries after “also recorded” stand apart in the source; their conditions may differ.

Legend:
Assay type in all cases: cell-based, human
[1] = tested on: GFP-RFP-LC3-II puncta in SH-SY5Y cells; test: Tandem fluorescent protein quenching assay (RFP-GFP-LC3); conditions: transfected SH-SY5Y cells, AKNS-2 10 μM alone vs control cells
Procedure: SH-SY5Y cells were cultured in a 24-well plate at a density of 8×10^4 cells/well on a glass cover slip. Transfection was performed in accordance with guidelines of the autophagy tandem RFP-GFP-LC3B kit. After culturing the cells for 24 hours, the cells were treated with an LC3B reagent. After the transfected cells were incubated for 24 hours, 50 nM Wart or 100 nM Baf was administered thereto, and then AKNS-2 (10 μM) was added thereto. The cells were immobilized with 4% paraformaldehyde and permeabilized with 0.1% Triton X100. Nuclei thereof were stained with 4,6-diamidino-2-phenylindole (DAPI, 25 μg/mL). Fluorescent signals were detected using a confocal microscope (Leica, Solms, Germany).

[2] = tested on: autophagy-related protein markers (LC3-II, p62, p-AMPK, p-Erk, p-ULK, p-mTOR) in SH-SY5Y cells; test: Western blot of autophagy-related protein markers in SH-SY5Y cells
Procedure: (§1) Human neuroblastoma (SH-SY5Y) cells were purchased from the American Type Culture Collection (Manassas, Va., USA) and cultured in DMEM supplemented with 10% heat-inactivated FBS and 1% penicillin/streptomycin. The SH-SY5Y cells were cultured at 37° C. in a humid atmosphere containing 5% CO2. […] The SH-SY5Y cells were transfected with AMPK siRNA and then administered with AKNS-2 at 36 hours after siRNA transfection. […] After 24 hours from treatment with the samples, the SH-SY5Y cells were recovered and used for subsequent analysis. At 24 hours after drug treatment, the culture medium was removed from the 6-well plate, and the cells were gently washed once with cold saline. Subsequently, 1 mL of cold saline was added to each well, and cells attached to the bottom were floated by rubbing the bottom with a 1 mL pipette. The suspension was collected in a 1.5 mL tube and centrifuged at 4° C. at 13000×g for 5 minutes. After removing a supernatant, 50 μL of a RIPA lysis buffer including a protease inhibitor cocktail (Roche, Mannheim, Germany) and purchased from Cell Signaling Technology (Danvers, Mass., USA) was added to the cell pellet. After shaking the mixture at 4° C. for 30 minutes, the obtained cells were centrifuged at 4° C. at 13000×g for 20 minutes. A supernatant was collected therefrom, and a concentration of proteins was measured using a standard curve constructed using BSA by the Bradford method. Then, the supernatant was diluted with a loading buffer and heated at 99° C. for 5 minutes. Resultant cells were used in a subsequent western blot analysis. Protein markers contained in lysates of the SH-SY5Y cells and brain tissue of the mice (SNpc and ST) were measured by western blot analysis. Briefly, after determining a concentration, a protein sample (20 μg) was separated by 8%, 10%, or 15% sodium dodecyl sulfate-polyacrylamide gel electrophoresis (SDS-PAGE). Then, proteins separated on the gel were transferred to a polyvinylidene fluoride (PVDF) membrane for 45 minutes using a Trans-Blot Turbo Transfer System (Bio-Rad, USA). […] The membrane was further incubated with monoclonal primary antibodies derived from rabbits (anti-GAPDH, anti-AMPK, anti-p-AMPK, anti-ULK, anti-p-ULK555, anti-Erk, anti-p-Erk, anti-mTOR, anti-p-mTOR, anti-LC3B, anti-TH, and anti-α-synuclein antibodies). The primary antibodies were diluted in a blocking buffer at a ratio of 1:1000 and incubated overnight at 4° C. On the second day, the membrane was washed with TBST three times (10 minutes each) and incubated at room temperature in a horseradish peroxidase-conjugated goat anti-rabbit IgG secondary antibody (diluted in a blocking buffer at a ratio of 1:2000). After incubating in the secondary antibody for 1 hour, the membrane was washed for 30 minutes. The protein blots on the membrane were developed using an ECL detection kit and visualized using an LAS-4000 mini system (Fujifilm, Japan). The intensity of the protein blots was quantified using Multi Gauge software (Fujifilm, Japan).

[3] = tested on: LC3, p62, TH and α-synuclein in SH-SY5Y cells; test: Western blot of LC3, p62, TH and α-synuclein in MPP^+-treated SH-SY5Y cells (in vitro PD model)
Procedure: as §1

[4] = AKNS-2 5 μM and 10 μM, vs control

C[C@@H]1O[C@@H](O[C@@H]2[C@@H](O)[C@H](O[C@@H]3[C@@H](O[C@@H]4OC[C@@H](O)[C@H](O)[C@H]4O)[C@@H](O)[C@H](O[C@H]4[C@H](OC(=O)[C@]56CCC(C)(C)C[C@H]5C5=CC[C@@H]7[C@@]8(C)C[C@H](O)[C@H](O[C@@H]9O[C@H](CO)[C@@H](O)[C@H](O[C@@H]%10OC[C@@H](O)[C@H](O)[C@H]%10O)[C@H]9O)[C@@](C)(CO)[C@@H]8CC[C@@]7(C)[C@]5(C)C[C@H]6O)OC[C@H](O)[C@@H]4O)O[C@H]3C)OC[C@H]2O)[C@H](O)[C@H](O)[C@H]1O [Compound 1, 3-O-β-D-xylopyranosyl-(1→3)-β-D-glucopyranosylpolygalacic acid 28-O-α-L-rhamnopyranosyl-(1→3)-β-D-xylopyranosyl-(1→4)-[β-D-xylopyranosyl-(1→3)]-α-L-rhamnopyranosyl-(1→2)-α-L-arabinopyranosyl ester]
accumulation of GFP-RFP-LC3-II puncta [1]: more cytoplasmic puncta stained with green and red fluorescence were observed compared to in the control cells
expression level of p-Erk ([2]; 24 hours, 10 μM and 20 μM): the expression level of p-Erk significantly increased
expression of p-mTOR ([2]; 24 hours, 10 μM and 20 μM): The expression of p-mTOR was inhibited
expression level of p-AMPK ([2]; 24 hours, 5, 10 and 20 μM): the expression levels of p-AMPK and p-ULK significantly increased
expression level of p-ULK ([2]; 24 hours, 5, 10 and 20 μM): the expression levels of p-AMPK and p-ULK significantly increased
expression of LC3-II ([2]; 24 hours, 5, 10 and 20 μM): induced the expression of LC3-II, which is an important autophagy marker, in a dose-dependent manner
expression level of LC3-II ([2]; AKNS-2 5 μM and 10 μM, 24 hours, vs control): The expression level of LC3-II was significantly increased
expression level of p-Erk [2, 4]: significantly increased expression levels of p-Erk
expression of p-AMPK [2, 4]: Significantly increased expression
expression of p-ULK555 [2, 4]: significantly increased expression of p-ULK555
expression level of LC3-II ([2]; AKNS-2 10 μM alone): significantly increased the expression level of LC3-II
expression of p62 ([2]; AKNS-2 10 μM alone): induced a significant decrease in expression of p62
expression of p-mTOR ([2]; AKNS-2 10 μM, vs control): significantly inhibited the expression p-mTOR
expression of p-mTOR ([2]; AKNS-2 (5 μM and 10 μM), AMPK siRNA experiment, normal cells): significantly inhibited the expression of p-mTOR
expression of TH ([3]; AKNS-2 (5 μM and 10 μM) + 2 mM MPP^+ vs MPP^+ alone): the MPP^+-induced decrease in expression of TH was reversed; also recorded: the decreased expression of TH may be restored; also recorded: offset toxicity of MPP^+ and reversed the expression of TH
expression of α-synuclein ([3]; AKNS-2 + 2 mM MPP^+ vs MPP^+ alone): canceled out the effects of MPP^+ and inhibited the expression of α-synuclein; also recorded: the increased expression level of α-synuclein was decreased
